# Assay results: patent publication US8017629B2, “Compounds and uses thereof in modulating amyloid β” (Neurogenetic Pharmaceuticals, Inc., priority 2003, dated 2011)
# Tested on: Aβ42 levels in the extracellular medium
# Test: FRET (HTRF) assay, Aβ42 level of the extracellular medium of SH-SY5Y-APP cells
# Type: cell-based
# Settings: Homo sapiens, concentration at which reduction of Aβ42 level was half of the maximum reduction, read-out: Ab42 Potency
# Procedure: Compounds were evaluated for activity in modulating Aβ42 and Aβ40 levels in the extracellular medium using a homogeneous time-resolved fluorescence (HTRF) assay as follows.
# For the HTRF assay, either 5 or 10 μl of supernatant from treated cells was added to 10 or 15 μl of labeled antibody pairs, for a total volume of 20 μl, and incubated for 20-24 hours at 4° C. The labeled antibody pairs were either 8000 pg B436-XL665 and 400 pg B113 Europium, for assessing Aβ40 levels, or 8000 pg B436-XL665 and 400 pg A387 Europium, for assessing Aβ42 levels, diluted in 50 mM NaPO4, 0.2% BSA, 0.5M KF, pH 7. The fluorescence was read on a BMG Rubystar at 620 nm and 665 nm.
row,Structure (SMILES),EC50
1,COc1ccc(-c2csc(Nc3ccc(OC)c(OC)c3)n2)c(OC)c1 [Compound 101],1.1 to 5 µM
2,COc1cc(Nc2nc(-c3ccc4c(c3)OCCO4)cs2)cc(OC)c1OC [Compound 102],5.1 to 10 µM
3,c1cc2c(cc1Nc1nc(-c3ccc4c(c3)OCCO4)cs1)OCO2 [Compound 103],5.1 to 10 µM
4,COc1ccc(-c2csc(Nc3ccc4c(c3)OCO4)n2)c(OC)c1 [Compound 104],1.1 to 5 µM
5,c1cc2c(cc1Nc1nc(-c3ccc4c(c3)OCO4)cs1)OCO2 [Compound 105],1.1 to 5 µM
6,COc1cc(Nc2nc(-c3ccc(-c4ccccn4)s3)cs2)cc(OC)c1OC [Compound 106],5.1 to 10 µM
7,COc1cc(Nc2nc(-c3ccc(-c4ccccc4)s3)cs2)cc(OC)c1OC [Compound 107],10.1 to 30 µM
8,COc1cc(Nc2nc(-c3ccc(F)cc3)cs2)cc(OC)c1OC [Compound 108],5.1 to 10 µM
9,COc1cc(Nc2nc(-c3ccc(OC(F)F)cc3)cs2)cc(OC)c1OC [Compound 109],10.1 to 30 µM
10,COc1ccc(Nc2nc(-c3ccc4c(c3)OCCO4)cs2)cc1OC [Compound 110],5.1 to 10 µM
11,Oc1ccc(-c2csc(Nc3ccc4c(c3)OCO4)n2)cc1O [Compound 111],1.1 to 5 µM
12,COc1cc(Nc2nc(-c3ccc(O)c(O)c3)cs2)cc(OC)c1OC [Compound 112],10.1 to 30 µM
13,COc1ccc(-c2csc(Nc3ccc(N(C)C)cc3)n2)c(OC)c1 [Compound 114],0.2 to 1 µM
14,CN1CCN(c2ccc(-c3csc(Nc4ccc5c(c4)OCO5)n3)cc2)CC1 [Compound 115],1.1 to 5 µM
15,COc1cc(Nc2nc(-c3ccc(N4CCN(C)CC4)cc3)cs2)cc(OC)c1OC [Compound 116],1.1 to 5 µM
16,CN1CCN(c2ccc(-c3csc(Nc4ccc(N(C)C)cc4)n3)cc2)CC1 [Compound 117],5.1 to 10 µM
17,Oc1ccc(Nc2nc(-c3ccc4c(c3)OCO4)cs2)cc1 [Compound 118],5.1 to 10 µM
18,COc1ccc(Nc2nc(-c3ccc4c(c3)CCC(=O)N4)cs2)c(OC)c1 [Compound 120],10.1 to 30 µM
19,CCN(CC)c1ccc(-c2csc(Nc3ccc(OC)cc3OC)n2)cc1 [Compound 122],1.1 to 5 µM
20,CCN(CC)c1ccc(-c2csc(Nc3ccc(O)cc3)n2)cc1 [Compound 123],10.1 to 30 µM
21,COc1ccc(-c2csc(Nc3ccc(I)cc3)n2)c(OC)c1 [Compound 125],1.1 to 5 µM
22,CN1CCN(c2ccc(-c3csc(Nc4ccc(I)cc4)n3)cc2)CC1 [Compound 126],1.1 to 5 µM
23,CN1CCN(c2ccc(-c3csc(Nc4cccc5cccnc45)n3)cc2)CC1 [Compound 128],1.1 to 5 µM
24,COc1ccc(-c2csc(Nc3ccc(Br)cc3)n2)c(OC)c1 [Compound 129],0.2 to 1 µM
25,COc1ccccc1-c1csc(Nc2ccc(Br)cc2)n1 [Compound 130],10.1 to 30 µM

row,Structure (SMILES),EC50
1,CCc1ccc(Nc2nc(-c3ccc(N4CCN(C)CC4)cc3)cs2)cc1 [Compound 132],10.1 to 30 µM
2,CN1CCN(c2ccc(-c3csc(Nc4ccc5c(c4)OCCO5)n3)cc2)CC1 [Compound 134],1.1 to 5 µM
3,COc1cccc(CNc2nc(-c3ccc(N4CCN(C)CC4)cc3)cs2)c1 [Compound 135],1.1 to 5 µM
4,CCOc1ccc(Nc2nc(-c3ccc(N4CCN(C)CC4)cc3)cs2)cc1 [Compound 136],10.1 to 30 µM
5,COc1ccc(Nc2nc(-c3ccc(N4CCN(C)CC4)cc3)cs2)cc1 [Compound 137],1.1 to 5 µM
6,CN1CCN(c2ccc(-c3csc(Nc4ccc(Br)cc4)n3)cc2)CC1 [Compound 138],10.1 to 30 µM
7,CN1CCN(c2ccc(-c3csc(Nc4ccc(Oc5ccccc5)cc4)n3)cc2)CC1 [Compound 142],1.1 to 5 µM
8,CCN(CC)c1ccc(Nc2nc(-c3ccc(-n4cnc(-c5ccccc5)c4)cc3)cs2)c(C)c1 [Compound 147],1.1 to 5 µM
9,COc1ccc(-c2csc(Nc3ccc(Cl)cc3)n2)c(OC)c1 [Compound 150],1.1 to 5 µM
10,CN(C)S(=O)(=O)c1ccc(-c2csc(Nc3ccc4[nH]cnc4c3)n2)cc1 [Compound 157],10.1 to 30 µM
11,CCN(CC)c1ccc(-c2csc(Nc3ccc4[nH]cnc4c3)n2)cc1 [Compound 158],10.1 to 30 µM
12,COc1ccc(-c2csc(Nc3ccc4[nH]cnc4c3)n2)c(OC)c1 [Compound 160],0.2 to 1 µM
13,c1nc2cc(Nc3nc(-c4ccc5c(c4)OCO5)cs3)ccc2[nH]1 [Compound 161],5.1 to 10 µM
14,CCN1CCN(c2ccc(-c3csc(Nc4ccc5c(c4)OCO5)n3)cc2)CC1 [Compound 162],1.1 to 5 µM
15,CCCN(c1ccc2c(c1)OCO2)c1nc(-c2ccc(N3CCN(C)CC3)cc2)cs1 [Compound 163],5.1 to 10 µM
16,c1cc2c(cc1Nc1nc(-c3ccc(N4CCN(CC5CC5)CC4)cc3)cs1)OCO2 [Compound 164],5.1 to 10 µM
17,CSc1cccc(Nc2nc(-c3ccc4c(c3)OCCO4)cs2)c1 [Compound 167],5.1 to 10 µM
18,CC(C)N(c1ccccc1)c1ccc(Nc2nc(-c3ccncc3)cs2)cc1 [Compound 169],10.1 to 30 µM
19,c1cc(Nc2nc(-c3ccncc3)cs2)c2cn[nH]c2c1 [Compound 170],1.1 to 5 µM
20,COc1ccc(-c2csc(Nc3cccc4[nH]ncc34)n2)c(OC)c1 [Compound 171],1.1 to 5 µM
21,c1cc(Nc2nc(-c3ccc4c(c3)OCO4)cs2)c2cn[nH]c2c1 [Compound 172],1.1 to 5 µM
22,CCN(CC)c1ccc(Nc2nc(-c3ccc(-n4cnc(C)c4)cc3)cs2)c(C)c1 [Compound 179],0.2 to 1 µM
23,COc1ccc(-c2csc(Nc3ccc4c(c3)OCCO4)n2)c(OC)c1 [Compound 182],10.1 to 30 µM
24,CSc1cccc(Nc2nc(-c3ccc4c(c3)OCO4)cs2)c1 [Compound 183],10.1 to 30 µM
25,Cc1ccc(C)c(Nc2nc(-c3ccc(-n4cnc(C)c4)nc3)cs2)c1 [Compound 185],< 0.2 µM

# The next lines start with the values.
row,EC50,Structure (SMILES)
1,5.1 to 10 µM,COc1ccc(Nc2nc(-c3ccc(N4CCCC4)cc3)cs2)cc1OC [Compound 113]
2,5.1 to 10 µM,Oc1ccc(Nc2nc(-c3ccc(-c4ccccc4)cc3)cs2)cc1 [Compound 121]
3,5.1 to 10 µM,Oc1ccc(Nc2nc(-c3ccc4ccccc4c3)cs2)cc1 [Compound 124]
4,1.1 to 5 µM,CN1CCN(c2ccc(-c3csc(Nc4ccc5ccccc5c4)n3)cc2)CC1 [Compound 127]
5,10.1 to 30 µM,COc1cccc(Nc2nc(-c3ccc(N=Nc4ccccc4)cc3)cs2)c1 [Compound 131]
6,0.2 to 1 µM,CCN(CC)c1ccc(Nc2nc(-c3ccc(-n4ccnc4)cc3)cs2)c(C)c1 [Compound 133]
7,0.2 to 1 µM,CN1CCN(c2ccc(-c3csc(Nc4ccc(Cl)c(Cl)c4)n3)cc2)CC1 [Compound 139]
8,5.1 to 10 µM,CN1CCN(c2ccc(-c3csc(Nc4ccc5c(cnn5C)c4)n3)cc2)CC1 [Compound 140]
9,1.1 to 5 µM,CN1CCN(c2ccc(-c3csc(Nc4ccc5[nH]ncc5c4)n3)cc2)CC1 [Compound 141]
10,1.1 to 5 µM,c1cn(-c2ccc(-c3csc(Nc4ccc5[nH]ccc5c4)n3)cc2)cn1 [Compound 143]
11,0.2 to 1 µM,CSc1cccc(Nc2nc(-c3ccc(-n4ccnc4)cc3)cs2)c1 [Compound 144]
12,1.1 to 5 µM,CSc1cccc(Nc2nc(-c3ccc(N4CCN(C)CC4)cc3)cs2)c1 [Compound 145]
13,1.1 to 5 µM,CC(C)N(c1ccccc1)c1ccc(Nc2nc(-c3ccc(-n4ccnc4)cc3)cs2)cc1 [Compound 146]
14,0.2 to 1 µM,CN1CCN(c2ccc(-c3csc(Nc4ccc(Cl)cc4)n3)cc2)CC1 [Compound 148]
15,5.1 to 10 µM,CN(C)S(=O)(=O)c1ccc(-c2csc(Nc3ccc(Cl)cc3)n2)cc1 [Compound 149]
16,0.2 to 1 µM,CN1CCN(c2ccc(-c3csc(Nc4cccc(Cl)c4)n3)cc2)CC1 [Compound 151]
17,10.1 to 30 µM,Clc1cccc(Nc2nc(-c3ccc(-n4ccnc4)cc3)cs2)c1 [Compound 152]
18,5.1 to 10 µM,COc1ccc(-c2csc(Nc3cccc(Cl)c3)n2)c(OC)c1 [Compound 153]

row,EC50,Structure (SMILES)
1,10.1 to 30 µM,Clc1cccc(Nc2nc(-c3ccc4c(c3)OCO4)cs2)c1 [Compound 154]
2,1.1 to 5 µM,CN1CCN(c2ccc(-c3csc(Nc4ccc5[nH]cnc5c4)n3)cc2)CC1 [Compound 155]
3,1.1 to 5 µM,c1cn(-c2ccc(-c3csc(Nc4ccc5[nH]cnc5c4)n3)cc2)cn1 [Compound 156]
4,5.1 to 10 µM,c1ccc2cc(-c3csc(Nc4ccc5[nH]cnc5c4)n3)ccc2c1 [Compound 159]
5,5.1 to 10 µM,CSc1cccc(Nc2nc(-c3ccc(N(C)C)cc3)cs2)c1 [Compound 165]
6,0.2 to 1 µM,CSc1cccc(Nc2nc(-c3ccc(N4CCCC4)cc3)cs2)c1 [Compound 166]
7,1.1 to 5 µM,CSc1cccc(Nc2nc(-c3ccc(-c4ccccc4)cc3)cs2)c1 [Compound 168]
8,1.1 to 5 µM,Clc1ccc(Nc2nc(-c3ccc(-n4ccnc4)cc3)cs2)cc1Cl [Compound 173]
9,10.1 to 30 µM,CCCN(c1ccc(Cl)c(Cl)c1)c1nc(-c2ccc(-n3ccnc3)cc2)cs1 [Compound 174]
10,10.1 to 30 µM,CCCN(c1nc(-c2ccc(-n3ccnc3)cc2)cs1)c1ccc(N(CC)CC)cc1C [Compound 175]
11,5.1 to 10 µM,CCN(CC)c1ccc(N(CC)c2nc(-c3ccc(-n4ccnc4)cc3)cs2)c(C)c1 [Compound 176]
12,1.1 to 5 µM,CCN(CC)c1ccc(Nc2nc(-c3ccc(-n4ccnc4)cc3)cs2)cc1 [Compound 177]
13,10.1 to 30 µM,Cc1cc(C)cc(Nc2nc(-c3ccc(-n4cnc(-c5ccccc5)c4)cc3)cs2)c1 [Compound 178]
14,1.1 to 5 µM,CCN(c1ccc(N2CCOCC2)cc1)c1nc(-c2ccc(-n3ccnc3)cc2)cs1 [Compound 180]
15,10.1 to 30 µM,COc1cccc(Nc2nc(-c3ccc(-n4ccnc4)cc3)cs2)c1 [Compound 181]
16,1.1 to 5 µM,CCN(c1ccc(N2CCCCC2)cc1)c1nc(-c2ccc(-n3ccnc3)cc2)cs1 [Compound 184]
17,1.1 to 5 µM,Clc1ccc(Nc2nc(-c3ccc(-n4cnc(Cl)c4Cl)cc3)cs2)cc1Cl [Compound 186]
